Experimental data from patent publication US11351194B2, “Method for proliferating neural progenitor cells and composition for treating neurological diseases containing proliferated neural progenitor cells” (COLLEGE OF MEDICINE POCHON CHA UNIVERSITY INDUSTRY-ACADEMIC …, priority 2014, dated 2022).

Experiments:
[1] = tested on: fetal neural progenitor cells; test: Immunocytochemistry analysis using Ki67, Nestin and DAPI markers; assay type: cell-based, human; conditions: for expression of Ki67: in comparison with M1 and M2 (general culture condition), Ps<0.0001, FIG. 3B; for frequency of expression of both Ki67 and Nestin: in comparison with general culture condition, FIG. 3C
Experimental: (§1) 20 ng/ml of each of bFGF and EGF (available from Peprotech, R&D system) and 10 ml of a B27 supplement (available from GIBCO) were added to 500 ml of a mixed medium of DMEM/F12 (1:1) containing 0.5 ml of Primocin, which is an antibiotic formulation, and then, the fetal neural progenitor cells were cultured under a condition in which 1 μg/ml of DL-alpha-tocopherol acetate (M3), 1 μg/ml of (t)-alpha-tocopherol (M4), or a combination thereof (M5) was added. The resulting fetal neural progenitor cells were compared with those cultured under a general culture condition. Regarding the general culture condition, 20 ng/ml of each of bFGF and EGF and an α-supplement (2.5 mg insulin, 25 mg transferrin, 0.03 μM sodium selenite, 36.5 mg L-glutamine, and 0.75 g L-glucose) were added to 500 ml of a mixed medium of DMEM/F12 (1:1) containing 0.5 ml of Primocin, which is an antibiotic formulation, and then, the fetal neural progenitor cells were cultured therein (M1), or under a condition in which the B27 supplement was further added (M2).
The fetal neural progenitor cells were seeded on a 24-well plate at a density of 1×10^5 cells/well, cultured for 7 days, and then, subjected to immunocytochemistry analysis using Ki67, Nestin, and DAPI markers.

[2] = tested on: fetal neural progenitor cells; test: Immunocytochemistry analysis using GFAP, Tuj1 and DAPI markers; assay type: cell-based, human; conditions: for expression of Tuj1 / expression of GFAP: in comparison with M1 and M2 (general culture condition); for expression of Tuj1: Ps<0.02, FIG. 4C; for expression of GFAP: Ps<0.04, FIG. 4B; for frequency of expression of both GFAP and Tuj1: FIG. 4D
Experimental: as §1
The neural progenitor cells were seeded on a 24-well plate at a density of 1×10^5 cells/well, cultured for 7 days, and then, subjected to immunocytochemistry analysis using GFAP, Tuj1, and DAPI markers.

[3] = tested on: fetal neural progenitor cells; test: Cell viability by MTT assay; assay type: cell-based, human; conditions: 7 days
Source text: Human neural progenitor cells were isolated from 14 week-old human fetuses. Before obtaining the fetus samples, informed consents that had been sufficiently described to parents in advance were received. In addition, the sample collection and use thereof for research were approved by the Institutional Review Board of the CHA Hospital. Ventral midbrain tissues in the brain of a […] human fetus were isolated according to the method disclosed in Storch et al. 2001; and Milosevic et al. 2006, 2007, and then, dissociated into a single cell suspension by treating the ventral midbrain tissues in a solution containing 0.1 mg/ml of papain and 100 μg/ml of DNase at a temperature of 37° C. for about 30 minutes. The single cell suspension was washed with phosphate buffered saline (PBS), and then, incubated in 50 μg/ml of antipain at a temperature of 37° C. for 30 minutes. The resulting neural progenitor cells were plated, in a monolayer, at a density of 30,000 cells/cm^2, onto a culture dish that was pre-coated with 15 μg/ml of poly-L-omithine and 4 μg/ml of fibronectin, and then, cultured. The cultured fetus neural progenitor cells were seeded on a 96-well plate at a density of 1×10^4 cells/well, cultured for 7 days, and treated with an MTT reagent. Then, by measuring optical density thereof (at a wavelength of 570 nm), the cell viability was analyzed.

[4] = tested on: fetal neural progenitor cells; test: Cytometry (cell number); conditions: 1 μg/ml, 7 days; compared to general condition; Ps<0.0001; FIG. 2B
Experimental: The resulting fetal neural progenitor cells were compared with those cultured under a general culture condition. Regarding the general culture condition, 20 ng/ml of each of bFGF and EGF and an α-supplement (2.5 mg insulin, 25 mg transferrin, 0.03 μM sodium selenite, 36.5 mg L-glutamine, and 0.75 g L-glucose) were added to 500 ml of a mixed medium of DMEM/F12 (1:1) containing 0.5 ml of Primocin, which is an antibiotic formulation, and then, the fetal neural progenitor cells were cultured therein (M1), or under a condition in which the B27 supplement was further added (M2).
The fetal neural progenitor cells were seeded on a 6-well plate at a density of 2×10^5 cells/well, cultured for 7 days, and then subjected to cytometry.

[5] = 7 days, printed comparator: cells cultured under normoxia, Ps≤0.0001, FIG. 3D
[6] = 7 days, in comparison with general culture condition, Ps<0.0001
[7] = 7 days, in comparison with general culture condition, Ps<0.0001, FIG. 4E
[8] = 1 μg/ml in medium, in comparison with general culture condition (M1, M2), Ps<0.02, FIG. 1
[9] = hypoxia (oxygen about 0.1% to about 10%) in comparison with normoxia, M3: P<0.009, M4: P<0.01, M5: P<0.001

Structure (SMILES) | expression of Ki67 ([1]; 7 days) | frequency of expression of both Ki67 and Nestin ([1]; 7 days, Ps≤0.0001) | expression of Dapi [1, 5] | expression of Tuj1 ([2]; 7 days) | expression of GFAP ([2]; 7 days) | frequency of expression of both GFAP and Tuj1 [2, 6] | expression of Dapi [2, 7] | cell viability (MTT, optical density 570 nm) [3, 8] | cell viability (MTT, optical density 570 nm) [3, 9] | number of fetal neural progenitor cells [4] | expression of Dapi ([1]; hypoxia compared with normoxia, M4 P<0.006, M5 P<0.0001) | expression of Dapi ([2]; hypoxia in comparison with normoxia, M4: P<0.006)
CC(=O)Oc1c(C)c(C)c2c(c1C)CCC(C)(CCCC(C)CCCC(C)CCCC(C)C)O2 (racemic) [DL-alpha-tocopherol acetate] | increased expression of Ki67 of significance | higher frequency of expression of both Ki67 and Nestin together in a statistically significant manner | statistically significant increase in the expression of Dapi | reduced expression of Tuj1 in a statistically significant manner | reduced expression of GFAP in a statistically significant manner | lower frequency of expression of both GFAP and Tuj1 together | statistically significant increase in expression of Dapi | higher cell viability that is statistically significant | higher cell viability that is statistically significant | significantly increased number of fetal neural progenitor cells | – | –
Cc1c(C)c2c(c(C)c1O)CC[C@@](C)(CCC[C@H](C)CCC[C@H](C)CCCC(C)C)O2 [alpha-tocopherol, (t)-alpha-tocopherol] | increased expression of Ki67 of significance | higher frequency of expression of both Ki67 and Nestin together in a statistically significant manner | statistically significant increase in the expression of Dapi | reduced expression of Tuj1 in a statistically significant manner | reduced expression of GFAP in a statistically significant manner | lower frequency of expression of both GFAP and Tuj1 together | statistically significant increase in expression of Dapi | higher cell viability that is statistically significant | higher cell viability that is statistically significant | significantly increased number of fetal neural progenitor cells | statistically significant increase in the expression of Dapi | statistically significant increase in the expression of Dapi
